Laboratory results taken from patent publication US20100184807A1, “Methods to inhibit tumor cell growth by using proton pump inhibitors” (Bio-Quant, Inc., priority 2008, published 2010).

Tests used:
SF-539 (brain cancer) = assay: MTT tumor cell growth assay; assay type: cell-based; settings: SF-539 cells, lansoprazole 1-100 μM, 48 hours
Protocol: (§1) In one study, adherent cells were plated approximately 16-24 hours before the day of the experiment in 180 μl growth media. On the day of the experiment, the plated adherent cells were analyzed and counted and suspension cells were plated in 180 μl growth media. 10× lansoprazole compounds and vehicle was prepared. The 10× lansoprazole compounds were prepared by diluting lansoprazole to final concentrations of 100 μM, 30 μM, 10 μM, 3 μM, and 1 μM. A vehicle was prepared by preparing a solution of PBS, equivalent to the volume used for 10 μM lansoprazole wherein the 1× solution constitutes ˜0.06% PBS. 10 μl of the various 10× lansoprazole solutions and the vehicle were added to the cells. The cells were incubated at 37° C., 5% CO2 for 48 hours. The media was then aspirated. The cell suspension was then spun at 1500 RPM for 10 minutes. The media was slowly removed. 200 μl of MTT solution was added to each well with a concentration of 0.863 mg/ml MTT in the growth media. The cells were incubated at 37° C., 5% CO2 for 4 hours and the medium is then aspirated. The plate containing the cell suspension was then spun at 1500 RPM for 10 minutes. The media was slowly removed using a multichannel pipettor. 100 μl of DMSO was then added to each well. The cells were incubated at 37° C., 5% CO2 for 5 minutes and the absorbance was obtained at 560 nm using a Dynex Opsys MR plate reader.

SF295 (brain cancer) = assay: MTT tumor cell growth assay; assay type: cell-based; settings: SF295 cells, lansoprazole 1-100 μM, 48 hours
Protocol: as §1

SNB19 (brain cancer) = assay: MTT tumor cell growth assay; assay type: cell-based; settings: SNB19 cells, lansoprazole 1-100 μM, 48 hours
Protocol: as §1

U251 (brain cancer) = assay: MTT tumor cell growth assay; assay type: cell-based; settings: U251 cells, lansoprazole 1-100 μM, 48 hours
Protocol: as §1

HepG2 (liver carcinoma) = assay: Xenograft nude mouse model, HepG2; assay type: in vivo; settings: nude mice, 100 mg/kg in PEG300
Protocol: (§2) JR (rhabdomyosarcoma), HepG2 (liver carcinoma), SR Liquid Leukemia (leukemia), RSI 184 B Lymphoma (lymphoma), and G401 rhabdoid (kidney) cancer cells for use in a xenograft mouse model were collected from JR, HepG2, SR Liquid Leukemia, RS1184 B Lymphoma, and G401 rhabdoid tumor cell lines and injected at 5×10^6 cells per nude mouse in a volume of 100 μl subcutaneously. The animals were examined three times weekly to determine the progression of the tumors and determine body weight. Dosing started when tumors reached the ˜75-150 mm^3 size. Animals were randomized and distributed in groups in such a way that mean tumor weights in all groups were within 15% of the mean tumor weight in Group 1 (Control—vehicle group). Upon reaching the ˜75-150 mm^3 target size an effective amount of lansoprazole was administered to the mice in a suspension of PEG300 at a concentration of 100 mg/kg.

[1] = system: G401 rhabdoid (kidney) cancer cells; assay: Xenograft nude mouse model, G401; assay type: in vivo; settings: nude mice, 100 mg/kg in PEG300
Protocol: as §2

[2] = system: SR Liquid Leukemia (leukemia); assay: Xenograft nude mouse model, SR Liquid Leukemia; assay type: in vivo; settings: nude mice, 100 mg/kg in PEG300
Protocol: as §2

Cc1c(OCC(F)(F)F)ccnc1C[S+]([O-])c1nc2ccccc2[nH]1 (stereo not shown) [lansoprazole]
significant tumor cell growth reduction: tumor cell growth reduction (SF-539 (brain cancer)) | tumor cell growth reduction (SF295 (brain cancer)) | tumor cell growth reduction (SNB19 (brain cancer)) | tumor cell growth reduction (U251 (brain cancer))
especially effective: treating tumor cells derived from tumor cell line (HepG2 (liver carcinoma)) | treating tumor cells derived from tumor cell line [1] | treating tumor cells derived from tumor cell line [2]
